Measurements reported in patent US20230390402A1, “IONIZABLE CATIONIC LIPID ANALOG MATERIAL AND USE THEREOF AS DRUG DELIVERY CARRIER” (GUANGZHOU LIDE BIOMEDICINE TECHNOLOGY CO., LTD., priority 2021, published 2023).

How the values were obtained:
HeLa cells [1] = experiment: Transfection of luciferase-expressing plasmid DNA in HeLa cells; type: cell-based; details: 24 h, compared with Lipofectamine 2000
Procedure: In this example, with luciferase-expressing plasmid DNA as a reporter gene, a gene transfection efficiency of a cationic lipid analog material in HeLa cells was detected. A specific operation method was as follows: HeLa cells were inoculated in a 96-well plate and cultured in an incubator for 12 h; each of different cationic lipid analog materials was mixed with luciferase-expressing plasmid DNA (0.5 μg) in 40 μL of a sodium acetate buffer (25 mM, pH 5.2), and resulting mixtures each were allowed to stand for 10 min and then diluted with 460 μL of a Opti-MEM medium to obtain plasmid DNA-loaded cationic lipid analog complex particle solutions; a medium for the HeLa cells in the plate was removed, then the HeLa cells were washed once with PBS, and the complex particle solutions each were added in a volume of 125 μL; the cells were further cultured for 24 h, then a resulting culture supernatant was discarded, and the cells were fully lysed; and a substrate was added at 50 μl/well, and an expression level of luciferase was detected by a multi-mode microplate reader.

DC 2.4 cells = experiment: Transfection of eGFP-expressing mRNA in DC 2.4 cells (FCM and LSCM); type: cell-based, mouse; details: material 0.25-2 μg/well, mRNA 0.2 μg/well, 24 h, compared with Lipofectamine 2000
Procedure: In this experiment, with eGFP-mRNA as model mRNA, an mRNA transfection efficiency of a cationic lipid analog material in DC 2.4 cells was detected. A specific operation method was as follows:
DC 2.4 cells were inoculated in a 48-well plate and cultured in an incubator for 12 h; each of different cationic lipid analog materials (0.25 μg/well to 2 μg/well) was mixed with eGFP-expressing mRNA (0.2 μg/well) in 20 μL of a sodium acetate buffer (25 mM, pH 5.2), and resulting mixtures each were allowed to stand for 10 min and then diluted with 230 μL of a Opti-MEM medium to obtain mRNA-loaded complex particle solutions; a medium for the DC 2.4 cells in the plate was removed, then the DC 2.4 cells were washed once with PBS, and the complex particle solutions each were added; and the cells were cultured for 24 h, an mRNA transfection efficiency in cells was observed by FCM and LSCM. A commercial gene transfection reagent Lipofectamine 2000 was adopted as a positive control.

HeLa cells [2] = experiment: Transfection of GFP-expressing plasmid DNA in HeLa cells (FCM); type: cell-based; details: material 0.25-8 μg/well, plasmid DNA 0.5 μg/well, 24 h, compared with Lipofectamine 2000
Procedure: In this experiment, with GFP-expressing plasmid DNA as a reporter gene, a gene transfection efficiency of a cationic lipid analog material in HeLa cells was detected. A specific method was as follows:
HeLa cells were inoculated in a 24-well plate and cultured in an incubator for 12 h; each of different cationic lipid analog materials—(0.25 μg/well to 8 μg/well) was mixed with GFP-expressing plasmid DNA (0.5 μg/well) in 40 μL of a sodium acetate buffer (25 mM, […] resulting mixtures each were allowed to stand for 10 min and then diluted with 460 μL of a Opti-MEM medium to obtain plasmid DNA-loaded cationic lipid analog complex particle solutions; a medium for the HeLa cells in the plate was removed, then the HeLa cells were washed once with PBS, and the complex particle solutions each were added; and the cells were further cultured for 24 h, and then a plasmid DNA transfection efficiency in cells was analyzed by FCM. A commercial gene transfection reagent Lipofectamine 2000 was adopted as a positive control.

Row | SMILES | transfection efficiency of luciferase-expressing plasmid DNA (luciferase expression) (HeLa cells [1]) | mRNA transfection efficiency (eGFP-mRNA) (DC 2.4 cells) | transfection efficiency of GFP-expressing plasmid DNA (positive rate) (HeLa cells [2])
1 | CCCCCCCCCCCCCC(=O)N(CCCCN(C)C)C(C(=O)NCCCCCCNC(=O)C(C(C)C)N(CCCN(C)C)C(=O)CCCCCCCCCCCCC)C(C)C (stereo not shown) [I1R2C14A1] | equivalent to or higher than | equivalent to or higher than | equivalent to or higher than
2 | CCCCCCCCCCCCCCCC(=O)N(CCCN(C)C)C(C(=O)NCCCCCCNC(=O)C(C(C)C)N(CCCN(C)C)C(=O)CCCCCCCCCCCCCCC)C(C)C (stereo not shown) [I1R2C16A1] |  | equivalent to or higher than | 
3 | CCCCCCCC/C=C\CCCCCCCC(=O)N(CCCN(C)C)C(C(=O)NCCCCCCNC(=O)C(C(C)C)N(CCCN(C)C)C(=O)CCCCCCC/C=C\CCCCCCCC)C(C)C (stereo not shown) [I1R2C18-1A1] |  | equivalent to or higher than | 
4 | CCCCC/C=C\C/C=C\CCCCCCCC(=O)N(CCCN(C)C)C(C(=O)NCCCCCCNC(=O)C(C(C)C)N(CCCN(C)C)C(=O)CCCCCCC/C=C\C/C=C\CCCCC)C(C)C (stereo not shown) [I1R2C18-2A1] |  | equivalent to or higher than | equivalent to or higher than
5 | CCCCCCCCCCCCCCCCCC(=O)N(CCCN(C)C)C(C(=O)NCCCCCCNC(=O)C(C(C)C)N(CCCN(C)C)C(=O)CCCCCCCCCCCCCCCCC)C(C)C (stereo not shown) [I1R2C18A1] |  | equivalent to or higher than | 
6 | CCCCCCCCCCCCCC(=O)N(CCC1CCCN1C)C(C(=O)NCCCCCCNC(=O)C(C(C)C)N(CCC1CCCN1C)C(=O)CCCCCCCCCCCCC)C(C)C (stereo not shown) [I1R11C14A1] | equivalent to or higher than | equivalent to or higher than | equivalent to or higher than
7 | CCCCCCCCCCCCCCCC(=O)N(CCC1CCCN1C)C(C(=O)NCCCCCCNC(=O)C(C(C)C)N(CCC1CCCN1C)C(=O)CCCCCCCCCCCCCCC)C(C)C (stereo not shown) [I1R11C16A1] |  | equivalent to or higher than | 
8 | CCCCCCCCCCCCCCCCCC(=O)N(CCC1CCCN1C)C(C(=O)NCCCCCCNC(=O)C(C(C)C)N(CCC1CCCN1C)C(=O)CCCCCCCCCCCCCCCCC)C(C)C (stereo not shown) [I1R11C18A1] |  | equivalent to or higher than | 
9 | CCCCCCCCCCCCCC(=O)N(CCN(C)C)C(C(=O)NCCOCCOCCNC(=O)C(C(C)C)N(CCN(C)C)C(=O)CCCCCCCCCCCCC)C(C)C (stereo not shown) [I2R1C14A1] | equivalent to or higher than | equivalent to or higher than | equivalent to or higher than
10 | CCCCCCCCCCCCCCCC(=O)N(CCN(C)C)C(C(=O)NCCOCCOCCNC(=O)C(C(C)C)N(CCN(C)C)C(=O)CCCCCCCCCCCCCCC)C(C)C (stereo not shown) [I2R1C16A1] | equivalent to or higher than | equivalent to or higher than | equivalent to or higher than
11 | CCCCCCCC/C=C\CCCCCCCC(=O)N(CCN(C)C)C(C(=O)NCCOCCOCCNC(=O)C(C(C)C)N(CCN(C)C)C(=O)CCCCCCC/C=C\CCCCCCCC)C(C)C (stereo not shown) [I2R1C18-1A1] | equivalent to or higher than | equivalent to or higher than | equivalent to or higher than
12 | CCCCC/C=C\C/C=C\CCCCCCCC(=O)N(CCN(C)C)C(C(=O)NCCOCCOCCNC(=O)C(C(C)C)N(CCN(C)C)C(=O)CCCCCCC/C=C\C/C=C\CCCCC)C(C)C (stereo not shown) [I2R1C18-2A1] |  |  | equivalent to or higher than
13 | CCCCCCCCCCCCCC(=O)N(CCCN(C)C)C(C(=O)NCCOCCOCCNC(=O)C(C(C)C)N(CCCN(C)C)C(=O)CCCCCCCCCCCCC)C(C)C (stereo not shown) [I2R2C14A1] |  | equivalent to or higher than | equivalent to or higher than
14 | CCCCCCCCCCCCCC(=O)C(CCCN(CC)CC)C(C(=O)NCCOCCOCCNC(=O)C(C(C)C)N(CCCN(CC)CC)C(=O)CCCCCCCCCCCCC)C(C)C (stereo not shown) [I2R3C14A1] |  | equivalent to or higher than | 
15 | CCCCCCCCCCCCCCCC(=O)C(CCCN(CC)CC)C(C(=O)NCCOCCOCCNC(=O)C(C(C)C)N(CCCN(CC)CC)C(=O)CCCCCCCCCCCCCCC)C(C)C (stereo not shown) [I2R3C16A1] | equivalent to or higher than | equivalent to or higher than | equivalent to or higher than
16 | CCCCCCCCCCCCCCCCCC(=O)C(CCCN(CC)CC)C(C(=O)NCCOCCOCCNC(=O)C(C(C)C)N(CCCN(CC)CC)C(=O)CCCCCCCCCCCCCCCCC)C(C)C (stereo not shown) [I2R3C18A1] | equivalent to or higher than | equivalent to or higher than | equivalent to or higher than
17 | CCCCCCCCCCCCCCN(CCC1CCCN1C)C(C(=O)NCCOCCOCCNC(=O)C(C(C)C)N(CCC1CCCN1C)C(=O)CCCCCCCCCCCCC)C(C)C (stereo not shown) [I2R11C14A1] |  | equivalent to or higher than | equivalent to or higher than
18 | CCCCCCCCCCCCCCCCN(CCC1CCCN1C)C(C(=O)NCCOCCOCCNC(=O)C(C(C)C)N(CCC1CCCN1C)C(=O)CCCCCCCCCCCCCCC)C(C)C (stereo not shown) [I2R11C16A1] |  | equivalent to or higher than | equivalent to or higher than
19 | CCCCCCCC/C=C\CCCCCCCC(=O)N(CCC1CCCN1C)C(C(=O)NCCOCCOCCNC(=O)C(C(C)C)N(CCC1CCCN1C)C(=O)CCCCCCC/C=C\CCCCCCCC)C(C)C (stereo not shown) [I2R11C18-1A1] |  | equivalent to or higher than | equivalent to or higher than
20 | CCCCC/C=C\C/C=C\CCCCCCCC(=O)N(CCC1CCCN1C)C(C(=O)NCCOCCOCCNC(=O)C(C(C)C)N(CCC1CCCN1C)C(=O)CCCCCCC/C=C\C/C=C\CCCCC)C(C)C (stereo not shown) [I2R11C18-2A1] | equivalent to or higher than | equivalent to or higher than | equivalent to or higher than
21 | CCCCCCCCCCCCCCCCCCN(CCC1CCCN1C)C(C(=O)NCCOCCOCCNC(=O)C(C(C)C)N(CCC1CCCN1C)C(=O)CCCCCCCCCCCCCCCCC)C(C)C (stereo not shown) [I2R11C18A1] |  | equivalent to or higher than | equivalent to or higher than
